From patent US6673772B2, “Dipeptide compounds and their use as antiviral agents” (Sumitomo Pharmaceuticals Company Limited, priority 2000, dated 2004) come the findings set out here.

Data set [1] can be described thus: Plasma concentration after intraduodenal administration to rats. As to conditions: Sprague-Dawley, other: into the duodenum, rat, 10 mg/kg into the duodenum, 30 minutes after the administration. The data set is classed as in vivo. The method, then:
A pharmacological experiment of the compound of the present invention was carried out using Sprague-Dawley rats (300-400 g). 10 mg/kg of a 50% polyethylene glycol (PEG) solution (1 ml/kg) was administered into the duodenum under anesthesia and blood was collected over time. After the addition of a solvent, the collected blood plasma sample was shaken and centrifuged. The organic layer was concentrated and dissolved in 50% methanol. The sample thus obtained was analyzed by HPLC for the determination of concentration of the compound in plasma. The HPLC analysis was carried out using Capecellpak C18 (4.6×150 mm, Shiseido LTD) as a column and a mixed solvent of 0.1% TFA aqueous solution and acetonitrile as an eluent (see T. Mimoto et al. J. Med. Chem., 42, 1789-1802, 1999).
The compound of the present invention was confirmed to have pharmacological characteristics expected as an in vivo effect of the compound. For instance, when the compound of Example 1 of the present invention is administered to a rat at a dose of 10 mg/kg into the duodenum, the compound is detected in plasma of the rat at a concentration of 0.42 μg/ml 30 minutes after the administration.

A further data set deals with human plasma. Nature of the data set: Protein binding to human plasma (ultrafiltration, unbound ratio). As to conditions: concentration 1 μM; from regression line of FIG. 1; 18 hours at 37° C. It is filed as in vitro ADME. The method, then: Measurement of protein binding rate […] Freezed human plasma (HFFPP100) was used after thawing. Powder of human alpha 1-acid glycoprotein (supplied by SIGMA Co., hereinafter abbreviated to AAG) was dissolved in a phosphate buffer solution (PBS, pH 7.0) to a concentration of 1 mg/ml. […] Quantitative determination of unbound drug concentration […] All amount of the solution was transferred to Micropartition Devices (Centrifree®, Millipore Co.) and filtered by centrifugation at 1500 ×g for 20 minutes (using TOMY CX-210 high-speed cooling centrifugal machine). 200 μl of the filtrate was directly subjected to HPLC (Type: HITACHI D-7000, column: COSMOSIL (4.6* 250 mm, manufactured by Nacalai Tesque Co., Ltd.). The HPLC analysis was carried out by using a 59:41 (v/v) water-acetonitrile mixture containing 0.1% trifluoroacetic acid (TFA) as a mobile phase and measuring absorbance at 210 nm. The quantitative determination of unbound drug concentration was carried out based on the absolute calibration curve method using a calibration line obtained from the analysis of a standard sample which contains the drug at a known concentration. Analysis of protein binding properties A commonly accepted method (see Y. Odagiri et al., Protein Binding Experimental Method (1991), Hirokawa Publishing Co., Ltd.) was employed for the analysis of protein binding properties. […]

Data set [2] has as its target T1, recombinant HIV-1 protease (Human immunodeficiency virus type 1 group M subtype B, UniProt P04585).
T1 construct: 10.5 nM HIV-1 protease
Put plainly: Measurement of HIV protease inhibitory activity. It is filed as biochemical. The settings on record: 50 nM compound, 10.5 nM HIV-1 protease, pH 6.5, 37° C., 60 minutes; for inhibition at 0.05 µM: read-out: HIV protease inhibition rate (%) at 50 nM. The method, then:
Measurement of HIV protease inhibitory activity
The protease inhibitory activity was measured according to the method reported by T. Mimoto et al., J. Med. Chem., 42, 1789-1802 (1999) by using a recombinant HIV-1 protease (see Biochemistry, 250, 9, 264 (1990)) and a synthesized peptide substrate (H-Ser-Gln-Asn-Tyr-Pro-Ile-Val-OH). Specifically, reaction solutions (15 μl each) containing any one of the compounds synthesized in the above Examples 1-15 and Reference Examples 1-4, an inhibitor in which a known anti-AIDS agent (nelfinavir) is dissolved in DMSO in different concentrations, 10.5 nM HIV-1 protease, 20 mM synthesized peptide substrate, and 100 mM MES buffer solution (pH 6.5) were incubated at 37° C. for 60 minutes. Peptide fragments produced by cleaving the Tyr-Pro bonds in the synthesized peptide substrate was quantitatively measured by reverse phase HPLC.

The subject of data set [3] is HIV virus (HIV-1 IIIB strain). Put plainly: Measurement of anti-HIV activity (cytopathic effect, XTT) in CEM-SS cells. The data set is classed as cell-based. The settings on record: 6 days, in the presence of 50% human plasma. The method, then:
Measurement of anti-HIV activity
The anti-HIV activity of the compounds synthesized Examples 1-15 and Reference Examples 1-4 was measured according to the method reported by 0. S. Weislow et al. (J. Natl. Cancer Inst. 81, 577-586, 1989) using CEM-SS cells as host cells and HIV virus (HIV-1 IIIB strain)(see T. Mimoto et al., J. Med. Chem., 42, 1789-1802, 1999, etc.).
Specifically, the compounds synthesized Examples 1-15 and […] in various concentrations were added to a culture medium on 96-well microtiter plates. Human blood serum was added to a final concentration of 50%, then HIV infected CEM-SS cells was added, followed by incubation in a CO2 atmosphere at 37° C. for 6 days. The cytopathic effect induced by HIV-1 IIIB was measured by tetrazolium dye XTT dyeing method to evaluate the 50% inhibitory concentration (IC50).
For orientation: Protection from cytopathic effect is a common read-out in antiviral testing.

SMILES strings stand for the structures.

Usually inhibition stands for the relative decrease from the control value, in per cent.

Turning to `COc1ccc(C[C@H](NC(=O)c2cccc(O)c2C)[C@H](O)C(=O)N2CSC(C)(C)[C@H]2C(=O)NCc2ccccc2C)cc1` [Ex. 1, (R)-N-(2-methylbenzyl)-3-[(2S,3S)-2-hydroxy-3-(3-hydroxy-2-methylbenzoyl)amino-4-(4-methoxyphenyl)butanoyl]-5,5-dimethyl-1,3-thiazolidine-4-carboxamide], the concentration at 30 min in data set [1] worked out at 420 ng/mL. In addition, the “ratio of unbound drug (human plasma)” value with human plasma stood at 0.029. In addition, in data set [2], the inhibition at 0.05 µM was determined as 95%.

For `Cc1ccc(C[C@H](NC(=O)c2cccc(O)c2C)[C@H](O)C(=O)N2CSC(C)(C)[C@H]2C(=O)NCc2ccccc2C)cc1` [Ex. 9, (R)-N-(2-methylbenzyl)-3-[(2S,3S)-2-hydroxy-3-(3-hydroxy-2-methylbenzoyl)amino-4-(4-metylphenyl)butanoyl]-5,5-dimethyl-1,3-thiazolidine-4-carboxamide], the “Anti-HIV IC50” value in data set [3] is 0.02 µg/mL. Further, in data set [2], the “HIV protease inhibition rate (%) at 50 nM” value was 97%.

As to `CCOc1ccc(C[C@H](NC(=O)c2cccc(N)c2Cl)[C@H](O)C(=O)N2CSC(C)(C)[C@H]2C(=O)NCc2ccccc2C)cc1` [Ex. 12, (R)-N-(2-methylbenzyl)-3-[(2S,3S)-2-hydroxy-3-(3-amino-2-chlorobenzoyl)amino-4-(4-ethoxyphenyl)butanoyl]-5,5-dimethyl-1,3-thiazolidine-4-carboxamide], the inhibition at 0.05 µM in data set [2] was determined as 89%.

Regarding `Cc1ccccc1CNC(=O)[C@H]1N(C(=O)[C@@H](O)[C@H](Cc2ccc3c(c2)OCO3)NC(=O)c2cccc(N)c2Cl)CSC1(C)C` [Ex. 13, (R)-N-(2-methylbenzyl)-3-[(2S,3S)-2-hydroxy-3-(3-amino-2-chlorobenzoyl)amino-4-(3,4-methylenedioxyphenyl)butanoyl]-5,5-dimethyl-1,3-thiazolidine-4-carboxamide], in data set [2], the inhibition at 0.05 µM was determined as 95%.

Regarding `COc1ccc(C[C@H](NC(=O)c2cccc(N)c2Cl)[C@H](O)C(=O)N2CSC(C)(C)[C@H]2C(=O)NCc2c(C)cccc2C)cc1` [Ex. 14, (R)-N-(2,6-dimethylbenzyl)-3-[(2S,3S)-2-hydroxy-3-(3-amino-2-chlorobenzoyl)amino-4-(4-methoxyphenyl)butanoyl]-5,5-dimethyl-1,3-thiazolidine-4-carboxamide], the inhibition at 0.05 µM in data set [2] was 92%.

Regarding `Cc1cccc(C)c1CNC(=O)[C@H]1N(C(=O)[C@@H](O)[C@H](Cc2ccc3c(c2)OCO3)NC(=O)c2cccc(N)c2Cl)CSC1(C)C` [Ex. 15, (R)-N-(2,6-dimethylbenzyl)-3-[(2S,3S)-2-hydroxy-3-(3-amino-2-chlorobenzoyl)amino-4-(3,4-methylenedioxyphenyl)butanoyl]-5,5-dimethyl-1,3-thiazolidine-4-carboxamide], the inhibition at 0.05 µM in data set [2] was found to be 96%.

For the molecule `Cc1c(O)cccc1C(=O)N[C@@H](CSc1ccccc1)[C@H](O)CN1C[C@H]2CCCC[C@H]2C[C@H]1C(=O)NC(C)(C)C` [Re. 5, nelfinavir, reference compound], in data set [2], the inhibition at 0.05 µM turned out to be 93%.
